This is an account of results in ChEMBL document CHEMBL2073906, “Interactions of ofloxacin and erythromycin with the multidrug resistance protein (MRP) in MRP-overexpressing human leukemia cells” (Antimicrob Agents Chemother, 2000).

Data set [1] concerns the target T1, Multidrug resistance-associated protein 1 (Homo sapiens, UniProt P33527). Briefly: TP_TRANSPORTER: increase in Vincristine intracellular accumulation (Vincristine: 0.03 uM, Erythromycin: 14.7 mg/mL) in HL60R cells: flow cytometric analysis. It counts as functional, cell-based. (In general: In flow cytometry, cells or beads pass a laser one at a time.)
The target of data set [2] is T1, Multidrug resistance-associated protein 1. Put plainly: TP_TRANSPORTER: increase in Vincristine intracellular accumulation (Vincristine: 0.03 uM, Ofloxacin: 21.7 mg/mL) in HL60R cells: flow cytometric analysis. Type of data set: functional, cell-based.

T1 sequence (P33527 whole entry): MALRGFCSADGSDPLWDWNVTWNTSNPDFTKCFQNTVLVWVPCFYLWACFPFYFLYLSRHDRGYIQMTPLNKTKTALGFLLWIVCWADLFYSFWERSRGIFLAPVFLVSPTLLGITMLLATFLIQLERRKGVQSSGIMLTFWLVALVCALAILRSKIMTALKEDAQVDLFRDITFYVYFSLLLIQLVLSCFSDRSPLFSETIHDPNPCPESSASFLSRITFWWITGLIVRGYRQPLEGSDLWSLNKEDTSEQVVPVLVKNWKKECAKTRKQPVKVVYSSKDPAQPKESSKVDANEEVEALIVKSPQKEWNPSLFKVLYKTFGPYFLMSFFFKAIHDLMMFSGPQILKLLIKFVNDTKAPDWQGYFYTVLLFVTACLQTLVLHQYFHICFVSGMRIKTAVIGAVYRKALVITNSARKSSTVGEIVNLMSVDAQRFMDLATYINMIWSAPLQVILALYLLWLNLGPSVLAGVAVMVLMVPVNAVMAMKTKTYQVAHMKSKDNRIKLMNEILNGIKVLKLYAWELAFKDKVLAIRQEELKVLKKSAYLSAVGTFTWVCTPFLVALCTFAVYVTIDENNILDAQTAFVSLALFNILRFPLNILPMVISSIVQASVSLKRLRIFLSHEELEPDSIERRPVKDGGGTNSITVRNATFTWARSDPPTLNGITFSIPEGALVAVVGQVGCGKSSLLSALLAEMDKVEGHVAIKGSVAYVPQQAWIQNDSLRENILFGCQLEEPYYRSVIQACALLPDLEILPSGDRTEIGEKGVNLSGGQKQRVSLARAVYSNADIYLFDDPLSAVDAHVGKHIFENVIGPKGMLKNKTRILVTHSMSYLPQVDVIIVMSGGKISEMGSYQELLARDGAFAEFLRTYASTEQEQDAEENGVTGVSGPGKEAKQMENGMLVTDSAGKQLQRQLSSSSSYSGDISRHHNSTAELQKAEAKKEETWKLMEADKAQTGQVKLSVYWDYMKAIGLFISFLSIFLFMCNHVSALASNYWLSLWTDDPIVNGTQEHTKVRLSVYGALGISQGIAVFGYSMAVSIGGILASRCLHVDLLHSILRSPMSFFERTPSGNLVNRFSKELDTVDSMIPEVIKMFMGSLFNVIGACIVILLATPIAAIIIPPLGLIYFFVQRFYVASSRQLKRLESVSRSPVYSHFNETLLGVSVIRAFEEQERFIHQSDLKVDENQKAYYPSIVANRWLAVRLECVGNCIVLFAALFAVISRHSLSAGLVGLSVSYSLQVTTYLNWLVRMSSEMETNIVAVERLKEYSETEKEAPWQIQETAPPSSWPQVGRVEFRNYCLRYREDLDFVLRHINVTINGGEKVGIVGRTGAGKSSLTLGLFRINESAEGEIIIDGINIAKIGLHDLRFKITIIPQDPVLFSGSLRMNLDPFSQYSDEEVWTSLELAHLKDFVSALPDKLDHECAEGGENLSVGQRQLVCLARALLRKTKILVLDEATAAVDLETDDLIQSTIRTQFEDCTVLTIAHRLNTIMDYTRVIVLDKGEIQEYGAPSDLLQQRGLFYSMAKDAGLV

For `CC[C@H]1OC(=O)[C@H](C)[C@@H](O[C@H]2C[C@@](C)(OC)[C@@H](O)[C@H](C)O2)[C@H](C)[C@@H](O[C@@H]2O[C@H](C)C[C@H](N(C)C)[C@H]2O)[C@](C)(O)C[C@@H](C)C(=O)[C@H](C)[C@@H](O)[C@]1(C)O` [ERYTHROMYCIN], the Activity in data set [1] is listed as 0.16.

Consider `CC1COc2c(N3CCN(C)CC3)c(F)cc3c(=O)c(C(=O)O)cn1c23` (configuration not stated) [OFLOXACIN], for which the Activity in data set [2] worked out at 0.29.
